Results reported in patent US6001815A, “Depsipeptides containing N-substituted glycine residue” (Nisshin Flour Milling Co., Ltd., priority 1997, dated 1999).
Where a SMILES comes first, the peptide text is derived from it. [ ]: non-standard residue; d: D form. The star is where a group is joined. Fmoc = O=C(OCC1c2ccccc2-c2ccccc21)*; X1 = CCCCCCCCCCCC(CC(=O)O)O*; NBuGly = CCCCNCC(=O)O

Tested on: apolipoprotein E production in Hep G2 cells
Test: Productivity of apolipoprotein E in Hep G2 cells, determined by enzyme immunoassay
Assay type: cell-based, human
Settings: Hep G2 culture supernatant, methanol control defined as 100
Procedure: It will be shown below that the depsipeptides of the invention may influence upon the productivity of apolipoprotein E in Hep G2 cells, together with the test procedure as used.
First, Hep G2 cells of 1×10^5 cells were suspended in Dulbecco's modified Eagle medium (manufactured by Nissui Seiyaku Co., Ltd.; hereinafter referred to as "D-MEM medium") containing 10% fetal bovine serum and 1 ml each of the suspension was poured into a 24-well tissue culture plate. The cells were cultivated at 37° C. under atmosphere of a mixed gas composed of 5% carbon dioxide and 95% air. […]
It was again washed three times with 300 μl of PBS, 50 μl of the above sample solution (the medium for Hep G2 cells) was added and the mixture was allowed to stand at room temperature for 2 hours. […] The reaction was quenched by the addition of 100 μl of 2N sulfuric acid and absorbance was measured at 490 nm using absorbance at 650 nm as a control. An amount of apolipoprotein E in the present depsipeptide was determined upon the calibration curve drawn up when a commercially available apolipoprotein E (Chemicon Co., Ltd., U.S.A.) was used as a standard.
In the Test Example, the same procedure as described above was carried out except that methanol alone was added instead of the methanolic solution of the depsipeptide of this invention and an apolipoprotein E amount was measured as a control. […]

Question: How did the “Relative amount of apolipoprotein E (%)” value (Conc. 1 μM) turn out when `CCCCCCCCCCCC(CC(=O)O)OC(=O)CN(CCCC)C(=O)CN(CCCC)C(=O)[C@H](CC(=O)O)NC(=O)[C@@H](NC(=O)OCC1c2ccccc2-c2ccccc21)C(C)C` (some centres unmarked) [Compound 2] (Fmoc-VD[NBuGly][NBuGly]-X1) was run?
Answer: 256%

Question: And the “Relative amount of apolipoprotein E (%)” value (Conc. 5 μM)?
Answer: 389%
